# Source: ChEMBL document CHEMBL1122901, “Synthesis and biological activities of 2-pyrimidinone nucleosides. 2. 5-Halo-2-pyrimidinone 2'-deoxyribonucleosides” (J Med Chem, 1985)
# How the values were obtained:
# [1] = test system: Human alphaherpesvirus 2; experiment: Binding affinity against HSV-2(333); assay type: functional, organism-based
# [2] = test system: Human alphaherpesvirus 1; experiment: Antiherpes activity was tested as percent of control of plaque-formation against HSV-1 (KOS) virus by 100 uM of the compound; assay type: functional
# [3] = test system: Human alphaherpesvirus 1; experiment: Antiherpes activity was tested as percent of control of plaque-formation against ACG (S1) virus by 100 uM of the compound; assay type: functional, acycloguanosine resistant strain
# [4] = test system: Human alphaherpesvirus 1; experiment: Antiherpes activity was tested as percent of control of plaque-formation against HSV-1 (CL101) virus by 100 uM of the compound; assay type: functional
# [5] = Antiherpes activity was tested as percent of control of plaque-formation against PFAr virus by 100 uM of the compound; assay type: functional, Herpes simplex virus unknown type
# [6] = test system: Human alphaherpesvirus 1; experiment: Binding affinity against HSV-1(KOS); assay type: functional, organism-based
# [7] = test system: Human alphaherpesvirus 1; experiment: Antiherpes activity was tested as percent of control of plaque-formation against ACG (Tr7) virus by 100 uM of the compound; assay type: functional, acycloguanosine resistant strain
# [8] = test system: Human alphaherpesvirus 1; experiment: Antiherpes activity was tested as percent of control of plaque-formation against BVdUr virus by 100 uM of the compound; assay type: functional, bromovinyl deoxyuridine resistant strain
# [9] = test system: Human alphaherpesvirus 2; experiment: Antiherpes activity was tested as percent of control of plaque-formation against HSV-2 (333) virus by 100 uM of the compound; assay type: functional
# [10] = test system: Human alphaherpesvirus 2; experiment: Antiherpes activity was tested as percent of control of plaque-formation against HSV-2 (CEU-G) virus by 100 uM of the compound; assay type: functional
# [11] = test system: Human alphaherpesvirus 1; experiment: Antiherpes activity was tested as percent of control of plaque-formation against ACG (S1) virus by 5 uM of the compound; assay type: functional, acycloguanosine resistant strain
# [12] = test system: Human alphaherpesvirus 1; experiment: Antiherpes activity was tested as percent of control of plaque-formation against ACG (Tr7) virus by 5 uM of the compound; assay type: functional, acycloguanosine resistant strain
# [13] = test system: Human alphaherpesvirus 1; experiment: Antiherpes activity was tested as percent of control of plaque-formation against BVdUr virus by 5 uM of the compound; assay type: functional, bromovinyl deoxyuridine resistant strain
# [14] = test system: Human alphaherpesvirus 1; experiment: Antiherpes activity was tested as percent of control of plaque-formation against HSV-1 (KOS) virus by 5 uM of the compound; assay type: functional
# [15] = Antiherpes activity was tested as percent of control of plaque-formation against PFAr virus by 5 uM of the compound; assay type: functional, Herpes simplex virus unknown type
# [16] = test system: Human alphaherpesvirus 1; experiment: Antiherpes activity was tested as percent of control of plaque-formation against ACG (S1) virus by 30 uM of the compound; assay type: functional, acycloguanosine resistant strain
# [17] = test system: Human alphaherpesvirus 1; experiment: Antiherpes activity was tested as percent of control of plaque-formation against BVdUr virus by 30 uM of the compound; assay type: functional, bromovinyl deoxyuridine resistant strain
# [18] = test system: Human alphaherpesvirus 2; experiment: Antiherpes activity was tested as percent of control of plaque-formation against HSV-2 (333) virus by 30 uM of the compound; assay type: functional
# [19] = test system: Human alphaherpesvirus 1; experiment: Antiherpes activity was tested as percent of control of plaque-formation against HSV-1 (CL101) virus by 30 uM of the compound; assay type: functional
# [20] = test system: Human alphaherpesvirus 1; experiment: Antiherpes activity was tested as percent of control of plaque-formation against HSV-1 (KOS) virus by 30 uM of the compound; assay type: functional
# [21] = test system: Human alphaherpesvirus 1; experiment: Antiherpes activity was tested as percent of control of plaque-formation against ACG (Tr7) virus by 30 uM of the compound; assay type: functional, acycloguanosine resistant strain
smiles,measurement,setting,value
O=c1[nH]c(=O)n([C@H]2C[C@H](O)[C@@H](CO)O2)cc1I [IDOXURIDINE],Ki,[1],3.98 µM
same,Control,[2],0.27%
same,Control,[3],22%
same,Control,[4],1.6%
same,Control,[5],0.1%
same,Ki,[6],1840 nM
same,Control,[7],2.6%
same,Control,[8],14%
same,Control,[9],2.8%
same,Control,[10],9.3%
Nc1nc2c(ncn2COCCO)c(=O)[nH]1 [ACYCLOVIR],Control,[11],100%
same,Control,[12],85%
same,Control,[13],0.7%
same,Control,[14],6.5%
same,Control,[15],100%
O=c1[nH]c(=O)n([C@H]2C[C@H](O)[C@@H](CO)O2)cc1/C=C/Br [BRIVUDINE],Control,[16],3.7%
same,Control,[17],52%
same,Control,[18],1.7%
same,Control,[19],0.4%
same,Control,[20],0.1%
same,Control,[21],0.8%
